Test results from patent publication US11458123B2 (Arvinas, Inc., priority 2016, dated 2022).

Each molecule was assayed on tau protein (assay: Tau protein in vitro degradation assay (Western blot, Tau-13 antibody)). Conditions: SK-N-SH cells; 72 hours of incubation; tested at 300 nM, 100 nM, 33 nM and 11 nM; Western blot, Tau-13 antibody.
Format: cell-based, human
Method in brief: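 Tau degradation read by Tau-13 Western blot (detects all human tau forms) of SDS-PAGE-resolved lysates from SK-N-SH cells. Cells were plated at least 18 h before 72 h exposure to PROTACs at either 1000/300/100 nM or 300/100/33/11 nM.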

Compound	Degradation activity* (highest amount of degradation observed at any dosage; tau protein remaining)	Degradation activity (tau protein remaining; highest amount of degradation observed at any dosage)
Cn1c2ccncc2c2ccc(-c3ccc(O[C@H]4C[C@H](OCCCOCCCN5CC(Oc6ccc7c(c6)C(=O)N(C6CCC(=O)NC6=O)C7=O)C5)C4)nc3)cc21 (stereo partly shown) [Compound 99, 2-(2,6-dioxopiperidin-3-yl)-5-((1-(3-(3-((1r,3r)-3-((5-(5-methyl-5H-pyrido[4,3-b]indol-7-yl)pyridin-2-yl)oxy)cyclobutoxy)propoxy)propyl)azetidin-3-yl)oxy)isoindoline-1,3-dione]	A (≤50% tau protein remaining after 72 hours of incubation with the test compound)	–
O=C1CCC(N2C(=O)c3cc(F)c(OCCOCCOCCOCCOCCOc4ccc(-c5ccc6c(c5)[nH]c5ccncc56)cn4)cc3C2=O)C(=O)N1 (stereo not shown) [Compound 81, 5-((14-((5-(5H-pyrido[4,3-b]indol-7-yl)pyridin-2-yl)oxy)-3,6,9,12-tetraoxatetradecyl)oxy)-2-(2,6-dioxopiperidin-3-yl)-6-fluoroisoindoline-1,3-dione]	A (≤50% tau protein remaining after 72 hours of incubation with the test compound)	–
O=C1CCC(N2C(=O)c3ccc(OCCOCCOCCOCCOCCN4CCC(c5ccc6c(c5)[nH]c5ccncc56)CC4)cc3C2=O)C(=O)N1 (stereo not shown) [Compound 57, 5-((14-(4-(5H-pyrido[4,3-b]indol-7-yl)piperidin-1-yl)-3,6,9,12-tetraoxatetradecyl)oxy)-2-(2,6-dioxopiperidin-3-yl)isoindoline-1,3-dione]	C (>80% tau protein remaining after 72 hours of incubation with the test compound)	–
Cn1c2ccncc2c2ccc(-c3ccc(CCCN4CCN(CCCCCOc5ccc6c(c5)CN(C5CCC(=O)NC5=O)C6=O)CC4)nc3)cc21 (stereo not shown) [Compound 62, 3-(5-((5-(4-(3-(5-(5-methyl-5H-pyrido[4,3-b]indol-7-yl)pyridin-2-yl)propyl)piperazin-1-yl)pentyl)oxy)-1-oxoisoindolin-2-yl)piperidine-2,6-dione]	C (>80% tau protein remaining after 72 hours of incubation with the test compound)	–
Cc1ncsc1-c1ccc([C@H](C)NC(=O)[C@@H]2C[C@@H](O)CN2C(=O)[C@@H](NC(=O)COCCOc2ccc(-c3ccc4c(c3)[nH]c3ccncc34)cn2)C(C)(C)C)cc1 [Compound 120, (2S,4R)-1-((S)-2-(2-(2-((5-(5H-pyrido[4,3-b]indol-7-yl)pyridin-2-yl)oxy)ethoxy)acetamido)-3,3-dimethylbutanoyl)-4-hydroxy-N—((S)-1-(4-(4-methylthiazol-5-yl)phenyl)ethyl)pyrrolidine-2-carboxamide]	C (>80% tau protein remaining after 72 hours of incubation with the test compound)	–
O=C1CCC(N2C(=O)c3ccc(N4CCN(CCCO[C@H]5C[C@@H](Oc6ccc(-c7ccc8c(c7)[nH]c7ccncc78)cn6)C5)CC4)cc3C2=O)C(=O)N1 (stereo partly shown) [Compound 53, 5-(4-(3-((1s,3s)-3-((5-(5H-pyrido[4,3-b]indol-7-yl)pyridin-2-yl)oxy)cyclobutoxy)propyl)piperazin-1-yl)-2-(2,6-dioxopiperidin-3-yl)isoindoline-1,3-dione]	C (>80% tau protein remaining after 72 hours of incubation with the test compound)	–
Cn1c2ccncc2c2ccc(-c3ccc(OCCOCCOCCOCCCCC(Oc4ccc5c(c4)C(=O)N(C4CCC(=O)NC4=O)C5=O)C(F)(F)F)nc3)cc21 (stereo not shown) [Compound 129, 2-(2,6-dioxopiperidin-3-yl)-5-((1,1,1-trifluoro-6-(2-(2-(2-((5-(5-methyl-5H-pyrido[4,3-b]indol-7-yl)pyridin-2-yl)oxy)ethoxy)ethoxy)ethoxy)hexan-2-yl)oxy)isoindoline-1,3-dione]	C (>80% tau protein remaining after 72 hours of incubation with the test compound)	–
Cn1c2ccncc2c2ccc(-c3ccc(O[C@H]4C[C@H](Oc5ccc(C#CCCCCOc6ccc7c(c6)C(=O)N(C6CCC(=O)NC6=O)C7=O)nc5)C4)nc3)cc21 (stereo partly shown) [Compound 97, 2-(2,6-dioxopiperidin-3-yl)-5-((6-(5-((1r,3r)-3-((5-(5-methyl-5H-pyrido[4,3-b]indol-7-yl)pyridin-2-yl)oxy)cyclobutoxy)pyridin-2-yl)hex-5-yn-1-yl)oxy)isoindoline-1,3-dione]	B (≤80% and >50% tau protein remaining after 72 hours of incubation with the test compound)	–
Cn1c2ccncc2c2ccc(-c3cnc(OCCOCCOCCOCCOCCOc4ccc5c(c4)C(=O)N(C4CCC(=O)NC4=O)C5=O)c(Cl)c3)cc21 (stereo not shown) [Compound 92, 5-((14-((3-chloro-5-(5-methyl-5H-pyrido[4,3-b]indol-7-yl)pyridin-2-yl)oxy)-3,6,9,12-tetraoxatetradecyl)oxy)-2-(2,6-dioxopiperidin-3-yl)isoindoline-1,3-dione]	A (≤50% tau protein remaining after 72 hours of incubation with the test compound)	–
Cn1c2ccncc2c2ccc(-c3ccc(O[C@H]4C[C@H](Oc5ccc(C#CCCCCOc6ccc7c(c6)C(=O)N(C6CCC(=O)NC6=O)C7=O)cn5)C4)nc3)cc21 (stereo partly shown) [Compound 102, 2-(2,6-dioxopiperidin-3-yl)-5-((6-(6-((1r,3r)-3-((5-(5-methyl-5H-pyrido[4,3-b]indol-7-yl)pyridin-2-yl)oxy)cyclobutoxy)pyridin-3-yl)hex-5-yn-1-yl)oxy)isoindoline-1,3-dione]	C (>80% tau protein remaining after 72 hours of incubation with the test compound)	–
O=C1CCC(N2C(=O)c3ccc(OCC#Cc4ccc(O[C@H]5C[C@H](Oc6ccc(-c7ccc8c(c7)[nH]c7ccncc78)cn6)C5)cn4)cc3C2=O)C(=O)N1 (stereo partly shown) [Compound 73, 5-((3-(5-((1r,3r)-3-((5-(5H-pyrido[4,3-b]indol-7-yl)pyridin-2-yl)oxy)cyclobutoxy)pyridin-2-yl)prop-2-yn-1-yl)oxy)-2-(2,6-dioxopiperidin-3-yl)isoindoline-1,3-dione]	A (≤50% tau protein remaining after 72 hours of incubation with the test compound)	–
Cn1c2ccncc2c2ccc(-c3cnc(CCCN4CCN(CCCCCOc5ccc6c(c5)C(=O)N(C5CCC(=O)NC5=O)C6=O)CC4)c(C(F)(F)F)c3)cc21 (stereo not shown) [Compound 63, 2-(2,6-dioxopiperidin-3-yl)-5-((5-(4-(3-(5-(5-methyl-5H-pyrido[4,3-b]indol-7-yl)-3-(trifluoromethyl)pyridin-2-yl)propyl)piperazin-1-yl)pentyl)oxy)isoindoline-1,3-dione]	C (>80% tau protein remaining after 72 hours of incubation with the test compound)	–
Cn1c2ccncc2c2ccc(-c3ccc(O[C@H]4C[C@H](OCC#CCOCCOC5CN(c6ccc7c(c6)C(=O)N(C6CCC(=O)NC6=O)C7=O)C5)C4)nc3)cc21 (stereo partly shown) [Compound 212, 2-(2,6-dioxopiperidin-3-yl)-5-(3-(2-((4-((1r,3r)-3-((5-(5-methyl-5H-pyrido[4,3-b]indol-7-yl)pyridin-2-yl)oxy)cyclobutoxy)but-2-yn-1-yl)oxy)ethoxy)azetidin-1-yl)isoindoline-1,3-dione]	–	A (≤50% tau protein remaining after 72 hours of incubation with the test compound)
